Relative viability data for one cell line are collected here from the supplement of paper PMC10307832.

What all share (test): relative viability (nuclei count vs DMSO), 5 days (fraction); higher = more cells survive
Compound in test [1]: N[C@@H]1CCCN(c2c(/C=C3\SC(=O)NC3=O)cccc2-c2ccccc2)C1 [AZD1208] + Nc1nc2[nH]cc(CCc3ccc(C(=O)N[C@@H](CCC(=O)O)C(=O)O)cc3)c2c(=O)[nH]1 [Pemetrexed] (partner 0.2 µM)
In short, it runs like this: (§1)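 Relative viability was taken as the ratio of nuclei in treated wells to nuclei in vehicle wells. Lung cancer cell lines in 1536-well plates received compounds by pin tool one day after seeding, either one drug alone or a fixed anchor-drug dose plus five library-drug doses (not always all listed) in √10 steps. Nuclei were counted on 4× images after 5 days of treatment, and values are medians of duplicate plates.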

Compound in test [2]: N[C@@H]1CCCN(c2c(/C=C3\SC(=O)NC3=O)cccc2-c2ccccc2)C1 [AZD1208] + CCNC(=O)c1noc(-c2cc(C(C)C)c(O)cc2O)c1-c1ccc(CN2CCOCC2)cc1 [Luminespib] (partner 0.01 µM)
In outline: as §1

Compound in test [3]: N[C@@H]1CCCN(c2c(/C=C3\SC(=O)NC3=O)cccc2-c2ccccc2)C1 [AZD1208] + CC(C)C[C@H](NC(=O)[C@H](Cc1ccccc1)NC(=O)c1cnccn1)B(O)O [Bortezomib] (partner 0.002 µM)
In outline: as §1

Compound in test [4]: CN1CCN(CC1)C2=CC(=C(C=C2)NC3=NC(=C(S3)C(=O)C4=C(C=CC=C4Cl)Cl)N)OC [XMD14-99] + CC(=O)Nc1cccc(-n2c(=O)n(C3CC3)c(=O)c3c(Nc4ccc(I)cc4F)n(C)c(=O)c(C)c32)c1 [Trametinib] (partner 0.02 µM)
In outline: as §1

Turning to UMC-11, the relative viability in test [1] (first compound 0.08 µM) amounted to 0.689; in test [1] (first compound 0.253 µM) it was 0.718; in test [1] (first compound 0.8 µM), 0.631; in test [1] (first compound 2.53 µM) it was 0.594; in test [1] (first compound 8 µM) it was 0.48; in test [2] (first compound 0.08 µM) it was 0.816. In addition, the relative viability was determined as 0.894 in test [2] (first compound 0.253 µM); 0.62 in test [2] (first compound 0.8 µM); 0.664 in test [2] (first compound 2.53 µM); 0.406 in test [2] (first compound 8 µM); 0.742 in test [3] (first compound 0.08 µM); 0.755 in test [3] (first compound 0.253 µM). The relative viability was 0.644 in test [3] (first compound 0.8 µM); 0.62 in test [3] (first compound 2.53 µM); 0.374 in test [3] (first compound 8 µM); 0.744 in test [4] (first compound 0.08 µM); 0.637 in test [4] (first compound 0.8 µM); 0.747 in test [4] (first compound 2.53 µM). In test [4] (first compound 8 µM), the relative viability is 0.645.
